Reference: US20260215428A1, “WEED CONTROL METHOD” (SYNGENTA CROP PROTECTION AG, priority 2023, published 2026)

Columns and labels:
Assay type in all cases: in vivo
Volunteer corn = experiment: 26 field trials, control of volunteer corn, Table B1-6
Lolium multiflorum [1] = experiment: Further glasshouse test versus other ACCase-inhibiting herbicides, Table B2-1; conditions: 21 days after application
Source text: (§1) Further tests were employed to test the efficacy of a compound of Formula I versus other ACCase-inhibiting herbicides. The five main targets were Lolium multiflorum, Eleusine indica, Digitaria insularis, Sorghum halepense and Echinochloa crus-galli. Collectively, the populations contained all the major target-site resistance mutations affecting ACCase herbicides. Two L. multiflorum (LM-NTSR-1 and LM-NTSR-2) and one E. crus-galli (ECG-NTSR-1) populations were characterised exclusively by non-target-site resistance (“NTSR”). The target-site resistant L. multiflorum and E. indication populations were 100% homozygous for different ACCase mutations whilst the D. insularis, S. halepense and E. crus-galli samples contained a mixture of homozygous wild and mutant individuals at different genotypic frequencies. Additional underlying NTSR cannot be ruled out in the populations characterised by target-site resistance.
(§2) Around 50 seeds of each of the 24 weed populations were sown in 12-cm pots containing a mixture of peat and compost in a 1:1 ratio. The pots were watered, fertilised and kept in controlled glasshouse conditions set at 24° C./16 hr day, 18° C. night, 65% relative humidity, and a photon flux density of approximately 250 μmol quanta m^−2 s^−1 for Lolium multiflorum. The E. indica, D. insularis, S. halepense and E. crus-galli plants were kept in a separate glasshouse bay characterised by a 17 H photoperiod of 180 μmol m^−2 s^−1 with temperatures of 25° C. day and 19° C. night and 65% relative humidity. When the plants were at the two to four-leaf stage, they were treated with the various ACCase-inhibiting herbicides at 0, 15, 30, 60, 120 and 240 g ai ha^−1 in a spray cabinet mounted with a single mobile Teejet flat fan nozzle (11002VS) calibrated to deliver 200 L ha^−1 at 200 kPa. The L. multiflorum populations were treated by a compound of Formula Ic, clodinafop-propargyl, pinoxaden, cycloxydim and clethodim and the warm season grass weeds E. indica, D. insularis, S. halepense and E. crus-galli were sprayed with a Compound Ic and the commonly employed haloxyfop-methyl and clethodim. Three replicate pots were used per population. Plants were assessed for visual damage compared to the untreated control 21 days after application (0=0% damage; 100=100% damage).

Lolium multiflorum [2] = experiment: Glasshouse post-emergence test, visual damage, Table B1-1
Description: Seeds of a variety of test species are sown in standard soil in pots. For each treatment, three replicate pots containing 10-15 plants per one-inch pot were sprayed at the 2-3 leaf stage. Clethodim and Compound (Ic) were each applied at 15, 30, 60 and 120 g ai/ha. The test plants are then grown in a glasshouse under controlled conditions in a glasshouse (at 24/16° C., day/night; 14 hours light; 65% humidity) and watered twice daily. […]

Sorghum halepense = experiment: Further glasshouse test versus other ACCase-inhibiting herbicides, Table B2-4; conditions: 21 days after application
Source text: as §1, §2

Echinochloa Crus-galli = experiment: Further glasshouse test versus other ACCase-inhibiting herbicides, Table B2-5; conditions: 21 days after application
Source text: as §1, §2

CC#Cc1ccc(C2=C(OC(=O)OC)C3CCC(C3)C2=O)c(OC)c1 (centres unmarked) [Compound Ic]
48%: visual damage (Lolium multiflorum [1]; population LM-NTSR-2 (non-target-site resistance), 15 g/ha)
65%: visual damage (Sorghum halepense; biotype W2027C, 15 g/ha)
98%: visual damage (Sorghum halepense; biotype W2027C, 60 g/ha)
88%: visual damage (Lolium multiflorum [1]; biotype W2027C, 15 g/ha)
40%: visual damage (Lolium multiflorum [2]; biotype GG2078 (homozygous), 15 g/ha, 14 days after application)
93%: Control (14d) (Volunteer corn; 25 g/ha) | visual damage (Lolium multiflorum [1]; population LM-NTSR-1 (non-target-site resistance), 15 g/ha)
85%: visual damage (Lolium multiflorum [1]; biotype W1999S, 15 g/ha) | visual damage (Lolium multiflorum [2]; biotype SS1999 (homozygous), 15 g/ha, 21 DAA)
47%: visual damage (Lolium multiflorum [2]; biotype NN2041 (homozygous), 15 g/ha, 14 days after application)
95%: visual damage (Sorghum halepense; biotype Sensitive, 15 g/ha)
100%: Control (28d) (Volunteer corn; 50 g/ha) | Control (28d) (Volunteer corn; 100 g/ha) | Control (28d) (Volunteer corn; 200 g/ha) | visual damage (Lolium multiflorum [1]; biotype C2088R, 15 g/ha) | visual damage (Lolium multiflorum [1]; biotype C2088R, 30 g/ha) | visual damage (Lolium multiflorum [1]; biotype C2088R, 60 g/ha) | visual damage (Lolium multiflorum [1]; biotype C2088R, 120 g/ha) | visual damage (Lolium multiflorum [1]; biotype C2088R, 240 g/ha) | visual damage (Lolium multiflorum [1]; biotype D2078G, 60 g/ha) | visual damage (Lolium multiflorum [1]; biotype D2078G, 120 g/ha) | visual damage (Lolium multiflorum [1]; biotype D2078G, 240 g/ha) | visual damage (Lolium multiflorum [1]; biotype I1781L, 15 g/ha) | visual damage (Lolium multiflorum [1]; biotype I1781L, 30 g/ha) | visual damage (Lolium multiflorum [1]; biotype I1781L, 60 g/ha) | visual damage (Lolium multiflorum [1]; biotype I1781L, 120 g/ha) | visual damage (Lolium multiflorum [1]; biotype I1781L, 240 g/ha) | visual damage (Lolium multiflorum [1]; biotype Sensitive, 15 g/ha) | visual damage (Lolium multiflorum [1]; biotype Sensitive, 30 g/ha) | visual damage (Lolium multiflorum [1]; biotype Sensitive, 60 g/ha) | visual damage (Lolium multiflorum [1]; biotype Sensitive, 120 g/ha) | visual damage (Lolium multiflorum [1]; biotype Sensitive, 240 g/ha) | visual damage (Lolium multiflorum [1]; biotype W1999S, 30 g/ha) | visual damage (Lolium multiflorum [1]; biotype W1999S, 60 g/ha) | visual damage (Lolium multiflorum [1]; biotype W1999S, 120 g/ha) | visual damage (Lolium multiflorum [1]; biotype W1999S, 240 g/ha) | visual damage (Lolium multiflorum [1]; biotype W2027C, 30 g/ha) | visual damage (Lolium multiflorum [1]; biotype W2027C, 60 g/ha) | visual damage (Lolium multiflorum [1]; biotype W2027C, 120 g/ha) | visual damage (Lolium multiflorum [1]; biotype W2027C, 240 g/ha) | visual damage (Lolium multiflorum [1]; population LM-NTSR-1 (non-target-site resistance), 30 g/ha) | visual damage (Lolium multiflorum [1]; population LM-NTSR-1 (non-target-site resistance), 60 g/ha) | visual damage (Lolium multiflorum [1]; population LM-NTSR-1 (non-target-site resistance), 120 g/ha) | visual damage (Lolium multiflorum [1]; population LM-NTSR-1 (non-target-site resistance), 240 g/ha) | visual damage (Lolium multiflorum [1]; population LM-NTSR-2 (non-target-site resistance), 120 g/ha) | visual damage (Lolium multiflorum [1]; population LM-NTSR-2 (non-target-site resistance), 240 g/ha) | visual damage (Lolium multiflorum [2]; biotype CC2027 (homozygous), 15 g/ha, 14 days after application) | visual damage (Lolium multiflorum [2]; biotype CC2027 (homozygous), 30 g/ha, 14 days after application) | visual damage (Lolium multiflorum [2]; biotype CC2027 (homozygous), 60 g/ha, 14 days after application) | visual damage (Lolium multiflorum [2]; biotype CC2027 (homozygous), 120 g/ha, 14 days after application) | visual damage (Lolium multiflorum [2]; biotype GG2078 (homozygous), 30 g/ha, 14 days after application) | visual damage (Lolium multiflorum [2]; biotype GG2078 (homozygous), 60 g/ha, 14 days after application) | visual damage (Lolium multiflorum [2]; biotype GG2078 (homozygous), 120 g/ha, 14 days after application) | visual damage (Lolium multiflorum [2]; biotype LL1781 (homozygous), 15 g/ha, 14 days after application) | visual damage (Lolium multiflorum [2]; biotype LL1781 (homozygous), 30 g/ha, 14 days after application) | visual damage (Lolium multiflorum [2]; biotype LL1781 (homozygous), 60 g/ha, 14 days after application) | visual damage (Lolium multiflorum [2]; biotype LL1781 (homozygous), 120 g/ha, 14 days after application) | visual damage (Lolium multiflorum [2]; biotype NN2041 (homozygous), 30 g/ha, 14 days after application) | visual damage (Lolium multiflorum [2]; biotype NN2041 (homozygous), 60 g/ha, 14 days after application) | visual damage (Lolium multiflorum [2]; biotype NN2041 (homozygous), 120 g/ha, 14 days after application) | visual damage (Lolium multiflorum [2]; biotype RR2088 (homozygous), 15 g/ha, 14 days after application) | visual damage (Lolium multiflorum [2]; biotype RR2088 (homozygous), 30 g/ha, 14 days after application) | visual damage (Lolium multiflorum [2]; biotype RR2088 (homozygous), 60 g/ha, 14 days after application) | visual damage (Lolium multiflorum [2]; biotype RR2088 (homozygous), 120 g/ha, 14 days after application) | visual damage (Lolium multiflorum [2]; biotype SS1999 (homozygous), 30 g/ha, 21 DAA) | visual damage (Lolium multiflorum [2]; biotype SS1999 (homozygous), 60 g/ha, 21 DAA) | visual damage (Lolium multiflorum [2]; biotype SS1999 (homozygous), 120 g/ha, 21 DAA) | visual damage (Lolium multiflorum [2]; biotype Sensitive, 15 g/ha, 14 days after application) | visual damage (Lolium multiflorum [2]; biotype Sensitive, 30 g/ha, 14 days after application) | visual damage (Lolium multiflorum [2]; biotype Sensitive, 60 g/ha, 14 days after application) | visual damage (Lolium multiflorum [2]; biotype Sensitive, 120 g/ha, 14 days after application) | visual damage (Sorghum halepense; biotype Sensitive, 60 g/ha) | visual damage (Sorghum halepense; biotype Sensitive, 120 g/ha) | visual damage (Sorghum halepense; biotype Sensitive, 240 g/ha) | visual damage (Sorghum halepense; biotype W2027C, 120 g/ha) | visual damage (Sorghum halepense; biotype W2027C, 240 g/ha) | visual damage (Echinochloa Crus-galli; biotype Sensitive, 15 g/ha) | visual damage (Echinochloa Crus-galli; biotype Sensitive, 30 g/ha) | visual damage (Echinochloa Crus-galli; biotype Sensitive, 60 g/ha) | visual damage (Echinochloa Crus-galli; biotype Sensitive, 120 g/ha) | visual damage (Echinochloa Crus-galli; biotype Sensitive, 240 g/ha) | visual damage (Echinochloa Crus-galli; biotype W2027C, 15 g/ha) | visual damage (Echinochloa Crus-galli; biotype W2027C, 30 g/ha) | visual damage (Echinochloa Crus-galli; biotype W2027C, 60 g/ha) | visual damage (Echinochloa Crus-galli; biotype W2027C, 120 g/ha) | visual damage (Echinochloa Crus-galli; biotype W2027C, 240 g/ha) | visual damage (Echinochloa Crus-galli; population ECG-NTSR-1 (non-target-site resistance), 30 g/ha) | visual damage (Echinochloa Crus-galli; population ECG-NTSR-1 (non-target-site resistance), 60 g/ha) | visual damage (Echinochloa Crus-galli; population ECG-NTSR-1 (non-target-site resistance), 120 g/ha) | visual damage (Echinochloa Crus-galli; population ECG-NTSR-1 (non-target-site resistance), 240 g/ha)
82%: visual damage (Lolium multiflorum [1]; population LM-NTSR-2 (non-target-site resistance), 30 g/ha)
99%: Control (28d) (Volunteer corn; 25 g/ha) | Control (14d) (Volunteer corn; 50 g/ha) | Control (14d) (Volunteer corn; 100 g/ha) | Control (14d) (Volunteer corn; 200 g/ha)
90%: visual damage (Lolium multiflorum [1]; biotype D2078G, 30 g/ha) | visual damage (Echinochloa Crus-galli; population ECG-NTSR-1 (non-target-site resistance), 15 g/ha)
80%: visual damage (Sorghum halepense; biotype W2027C, 30 g/ha)
87%: visual damage (Lolium multiflorum [1]; population LM-NTSR-2 (non-target-site resistance), 60 g/ha)
97%: visual damage (Sorghum halepense; biotype Sensitive, 30 g/ha)
20%: visual damage (Lolium multiflorum [1]; biotype D2078G, 15 g/ha)
